Read-outs that look alike come from different tables or passages of the source.
Experiments:
WT/R232 STING protein = molecular target: T1, WT/R232 STING protein (Homo sapiens, UniProt Q86WV6, H232R); test: Luciferase reporter assay in HEK293T-hSTING-Luciferase cells, WT/R232; format: cell-based; details: 20 hr stimulation, read-out: R232 Activity (EC50 range)
T1 construct: host or cells: HEK293T
How it was run: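 Clonal HEK293T cells stably expressing human STING R232 plus an ISRE/ISG54-driven luciferase reporter, 5×10^5 per well, stimulated with compounds for 20 h. Secreted luciferase in supernatant measured by luminescence; […].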

hSTING(H232) = molecular target: T2, hSTING(H232) (Homo sapiens, UniProt Q86WV6); test: Luciferase reporter assay in HEK293T-hSTING-Luciferase cells, H232 polymorph; format: cell-based; details: 20 hr stimulation, read-out: H232 activity (EC50 range)
T2 construct: host or cells: HEK293T
T2 sequence (Q86WV6 whole entry): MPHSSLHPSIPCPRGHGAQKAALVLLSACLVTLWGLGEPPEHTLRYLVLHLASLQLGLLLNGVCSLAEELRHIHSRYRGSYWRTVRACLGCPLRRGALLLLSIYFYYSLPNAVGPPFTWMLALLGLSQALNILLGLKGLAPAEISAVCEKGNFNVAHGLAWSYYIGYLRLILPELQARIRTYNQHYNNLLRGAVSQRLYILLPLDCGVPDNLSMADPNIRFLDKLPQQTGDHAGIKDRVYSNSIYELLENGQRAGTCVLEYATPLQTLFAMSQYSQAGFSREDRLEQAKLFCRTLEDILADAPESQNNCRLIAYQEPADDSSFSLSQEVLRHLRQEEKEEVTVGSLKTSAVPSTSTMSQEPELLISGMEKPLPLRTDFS
From the text: (§1) • a) Stable STING expressing cells—Stable HEK293T STING-expressing cell lines were generated using plasmids purchased from Invivogen, Calif., USA, that contain STING cDNA cloned into the pUNO-1 vector under hEF1-HTLV promoter and containing the Blasticidin selection cassette. The plasmids hSTING(R232), hSTING(H232), hSTING(HAQ) were directly procured from Invivogen while hSTING (AQ) and hSTING (Q) were derived from hSTING(HAQ) and hSTING (R232) plasmids respectively by using a PCR based site directed mutagenesis method. These vectors were individually transfected into HEK293T cells using Lipofectamine (Invitrogen) and transfected cells were selected under Blasticidin selection. These transfected cells were further subjected to clonal selection using the limiting dilution method to obtain clonally pure populations of HEK cells transfected with each of the above mentioned human STING variants. Only those clones were selected in which ligand independent activation of STING was minimal. • b) Stable Luciferase reporter gene expressing cells—Stable HEK293T Luciferase reporter gene expressing cell lines were generated using pCDNA4 plasmids under an IRF-inducible promoter. This promoter is comprised of five tandem interferon-stimulated response elements (ISRE) fused to an ISG54 minimal promoter. This vector was transfected into HEK293T cells using Lipofectamine (Invitrogen) and transfected cells were selected under Zeocin selection. These transfected cells were further subjected to clonal selection using the limiting dilution method to obtain clonally pure populations of HEK cells transfected the Luciferase reporter construct. Only those clones were selected in which ligand independent induction of luciferase was minimal.
(§2) 5×10^5 clonally selected HEK293T-hSTING-Luciferase cells were seeded in 384-well plates in growth medium and stimulated with novel compounds. After 20 hr of stimulation supernatant were removed and secretary reporter gene activity were measured using the Quanti-Luc detection system (Invivogen) on a Spectramax i3X luminometer.
(§3) The 5 major polymorphisms of human STING are shown in FIG. 1, with their prevalence in human populations indicated.

hSTING(HAQ) = molecular target: T3, hSTING(HAQ) (Homo sapiens, UniProt Q86WV6, G230A/H232R/R293Q/R71H); test: Luciferase reporter assay in HEK293T-hSTING-Luciferase cells, HAQ polymorph; format: cell-based; details: 20 hr stimulation, read-out: HAQ activity (EC50 range)
T3 construct: host or cells: HEK293T
T3 sequence (Q86WV6 whole entry R71H/G230A/H232R/R293Q): as the sequence (Q86WV6 whole entry) above, with R71H, G230A, H232R, R293Q counted along it
From the text: as §1, §2, §3

IRF pathway = test: Reporter gene expression assay in THP1-Dual cells, IRF axis (secreted Lucia luciferase); format: cell-based, human; details: read-out: THP-IRF activity (EC50 range)
Description: (§4) THP1-Dual™ cells (Invivogen) were derived from the human THP-1 monocyte cell line by stable integration of two inducible reporter constructs. As a result, THP1-Dual™ cells allow the simultaneous study of the NF-κB pathway, by monitoring the activity of secreted SEAP, and the IRF pathway, by assessing the activity of a secreted luciferase (Lucia). […] THP1-Dual™ cells were seeded in 384-well plates in growth medium and stimulated with novel compounds. After […] of stimulation supernatant were removed and reporter proteins were readily measured in the cell culture supernatant using QUANTI-Blue™ (Invivogen), a SEAP detection reagent, and QUANTI-Luc™ (Invivogen), a luciferase detection reagent on a Spectramax i3X luminometer.

NF-κB pathway = test: Reporter gene expression assay in THP1-Dual cells, NFkB axis (secreted SEAP); format: cell-based, human; details: read-out: THP-NFKB activity (EC50 range)
Description: as §4

T1 sequence (Q86WV6 whole entry H232R): as the sequence (Q86WV6 whole entry) above, with H232R counted along it

Row | EC50 (WT/R232 STING protein) | EC50 (hSTING(H232)) | EC50 (hSTING(HAQ)) | EC50 (IRF pathway; Homo sapiens, THP1-Dual) | EC50 (NF-κB pathway; Homo sapiens, THP1-Dual) | EC50 (IRF pathway) | EC50 (NF-κB pathway) | Compound
1 | < 1000 nM | 1000 to 10000 nM | 1000 to 10000 nM | 1000 to 10000 nM | 1000 to 10000 nM | – | – | CC1(C)Sc2ccc(C(=O)NCc3c(F)cc(F)cc3F)cc2N(Cc2ccccc2F)C1=O [Example 218, 4-(2-fluorobenzyl)-2,2-dimethyl-3-oxo-N-(2,4,6-trifluorobenzyl)-3,4-dihydro-2H-benzo[b][1,4] thiazine-6-carboxamide]
2 | < 1000 nM | < 1000 nM | 1000 to 10000 nM | > 10000 nM | 1000 to 10000 nM | – | – | O=C(NCc1c(F)cc(F)cc1F)c1ccc2c(c1)N(Cc1c(F)cccc1Cl)C(=O)CC2 [Example 270, 1-(2-chloro-6-fluorobenzyl)-2-oxo-N-(2,4,6-trifluorobenzyl)-1,2,3,4-tetrahydroquinoline-7-carboxamide]
3 | < 1000 nM | 1000 to 10000 nM | 1000 to 10000 nM | 1000 to 10000 nM | 1000 to 10000 nM | – | – | CC1Sc2ccc(C(=O)NCc3ccccc3)nc2N(Cc2cc(F)cc(F)c2)C1=O (centres unmarked) [Example 191, N-benzyl-4-(3,5-difluorobenzyl)-2-methyl-3-oxo-3,4-dihydro-2H-pyrido[3,2-b-1,4]thiazine-6-carboxamide]
4 | < 1000 nM | 1000 to 10000 nM | 1000 to 10000 nM | > 10000 nM | > 10000 nM | – | – | C[C@@H]1Oc2ccc(C(=O)NCc3c(F)cc(F)cc3F)cc2N(Cc2cc(F)cc(F)c2)C1=O [Example 234, (S)-4-(3,5-difluorobenzyl)-2-methyl-3-oxo-N-(2,4,6-trifluorobenzyl)-3,4-dihydro-2H-benzo[b-1,4]oxazine-6-carboxamide]
5 | 1000 to 10000 nM | > 10000 nM | > 10000 nM | > 10000 nM | > 10000 nM | – | – | O=C(NCc1ccc(F)cc1F)c1ccc2c(n1)N(Cc1cc(F)cc(F)c1)C(=O)CC2 [Example 279, N-(2,4-difluorobenzyl)-8-(3,5-difluorobenzyl)-7-oxo-5,6,7,8-tetrahydro-1,8-naphthyridine-2-carboxamide]
6 | < 1000 nM | < 1000 nM | < 1000 nM | 1000 to 10000 nM | 1000 to 10000 nM | – | – | CC1Sc2ncc(C(=O)NCc3c(F)cc(F)cc3F)cc2N(Cc2cc(F)cc(F)c2)C1=O (centres unmarked) [Example 192, 1-(3,5-difluorobenzyl)-3-methyl-2-oxo-N-(2,4,6-trifluorobenzyl)-2,3-dihydro-1H-pyrido[2,3-b][1,4]thiazine-7-carboxamide]
7 | 1000 to 10000 nM | 1000 to 10000 nM | 1000 to 10000 nM | > 10000 nM | > 10000 nM | – | – | CC1Cc2ccc(C(=O)NCc3c(F)cc(F)cc3F)cc2N(Cc2cc(F)cc(F)c2)S1(=O)=O (centres unmarked) [Example 285, 1-(3,5-Difluorobenzyl)-3-methyl-N-(2,4,6-trifluorobenzyl)-3,4-dihydro-1H-benzo[c][1,2]thiazine-7-carboxamide 2,2-dioxide]
8 | < 1000 nM | < 1000 nM | < 1000 nM | – | – | 1000 to 10000 nM | 1000 to 10000 nM | CC1Sc2ncc(C(=O)NCc3cc4ccccc4o3)cc2N(Cc2cc(F)cc(F)c2)C1=O (centres unmarked) [Example 194, N-(benzofuran-2-ylmethyl)-1-(3,5-difluorobenzyl)-3-methyl-2-oxo-2,3-dihydro-1H-pyrido[2,3-b][1,4]thiazine-7-carboxamide]
9 | < 1000 nM | < 1000 nM | < 1000 nM | 1000 to 10000 nM | 1000 to 10000 nM | – | – | CC1Sc2ncc(C(=O)NCc3c(F)cc(F)cc3F)cc2N(Cc2c(F)cccc2Cl)C1=O (centres unmarked) [Example 196, 1-(2-chloro-6 fluorobenzyl) 3-methyl-2-oxo-N-(2,4,6-trifluorobenzyl)-2,3-dihydro-1H-pyrido[2,3-b][1,4]thiazine-7-carboxamide]
10 | < 1000 nM | < 1000 nM | < 1000 nM | 1000 to 10000 nM | 1000 to 10000 nM | – | – | CC1Sc2ncc(C(=O)NCc3cc4ccccc4o3)cc2N(Cc2c(F)cccc2Cl)C1=O (centres unmarked) [Example 199, N-(benzofuran-2-ylmethyl)-1-(2-chloro-6-fluorobenzyl)-3-methyl-2-oxo-2,3-dihydro-1H-pyrido[2,3-b][1,4]thiazine-7-carboxamide]

The next lines start with the molecule.

Row | Compound | EC50 (WT/R232 STING protein) | EC50 (hSTING(H232)) | EC50 (hSTING(HAQ)) | EC50 (IRF pathway; Homo sapiens, THP1-Dual) | EC50 (NF-κB pathway; Homo sapiens, THP1-Dual) | EC50 (IRF pathway) | EC50 (NF-κB pathway)
11 | O=C(NCc1cc2ccccc2o1)c1ccc2c(c1)N(Cc1c(F)cccc1Cl)C(=O)CS2 [Example 40, N-(benzofuran-2-ylmethyl)-4-(2-chloro-6-fluorobenzyl)-3-oxo-3,4-dihydro-2H-benzo[b-1,4]thiazine-6-carboxamide] | < 1000 nM | 1000 to 10000 nM | 1000 to 10000 nM | 1000 to 10000 nM | 1000 to 10000 nM | – | –
12 | O=C(NCc1ccccc1)c1ccc2c(c1)N(Cc1ccccc1)C(=O)CS2 [Example 118, N,4-dibenzyl-3-oxo-3,4-dihydro-2H-benzo[b-1,4]thiazine-6-carboxamide] | 1000 to 10000 nM | 1000 to 10000 nM | > 10000 nM | > 10000 nM | > 10000 nM | – | –
13 | CC1Sc2ccc(C(=O)NCc3ccco3)nc2N(Cc2cc(F)cc(F)c2)C1=O (centres unmarked) [Example 189, 4-(3,5-difluorobenzyl)-N-(furan-2-ylmethyl)-2-methyl-3-oxo-3,4-dihydro-2H-pyrido[3,2-b-1,4]thiazine-6-carboxamide] | < 1000 nM | 1000 to 10000 nM | 1000 to 10000 nM | > 10000 nM | > 10000 nM | – | –
14 | CC1Sc2ccc(C(=O)NCc3c(F)cc(F)cc3F)cc2N(Cc2cc(F)cc(F)c2)C1=O (centres unmarked) [Example 153, 4-(3,5-difluorobenzyl)-2-methyl-3-oxo-N-(2,4,6-trifluorobenzyl)-3,4-dihydro-2H-benzo[b][1,4] thiazine-6-carboxamide] | < 1000 nM | 1000 to 10000 nM | 1000 to 10000 nM | 1000 to 10000 nM | 1000 to 10000 nM | – | –
15 | CC1Sc2ccc(C(=O)NCc3cc4ccccc4o3)cc2N(Cc2cc(F)cc(F)c2)C1=O (centres unmarked) [Example 149, N-(benzofuran-2-ylmethyl)-4-(3,5-difluorobenzyl)-2-methyl-3-oxo-3,4-dihydro-2H-benzo[b][1,4] thiazine-6-carboxamide] | < 1000 nM | < 1000 nM | < 1000 nM | 1000 to 10000 nM | < 1000 nM | – | –
16 | CC1(C)Sc2ccc(C(=O)NCc3cc4ccccc4o3)cc2N(Cc2c(F)cccc2Cl)C1=O [Example 154, N-(benzofuran-2-ylmethyl)-4-(2-chloro-6-fluorobenzyl)-2,2-dimethyl-3-oxo-3,4-dihydro-2H-benzo[b][1,4] thiazine-6-carboxamide] | < 1000 nM | 1000 to 10000 nM | < 1000 nM | 1000 to 10000 nM | 1000 to 10000 nM | – | –
17 | CC1Sc2ccc(C(=O)NCc3cc4ccccc4o3)nc2N(Cc2c(F)cccc2Cl)C1=O (centres unmarked) [Example 188, N-(benzofuran-2-ylmethyl)-4-(2-chloro-6-fluorobenzyl)-2-methyl-3-oxo-3,4-dihydro-2H-pyrido[3,2-b-1,4]thiazine-6-carboxamide] | < 1000 nM | 1000 to 10000 nM | 1000 to 10000 nM | > 10000 nM | 1000 to 10000 nM | – | –
18 | Cc1cccc(CNC(=O)c2ccc3c(c2)N(Cc2ccccc2F)C(=O)C(C)S3)c1 (centres unmarked) [Example 141, 4-(2-fluorobenzyl)-2-methyl-N-(3-methylbenzyl)-3-oxo-3,4-dihydro-2H-benzo[b-1,4]thiazine-6-carboxamide] | < 1000 nM | 1000 to 10000 nM | < 1000 nM | 1000 to 10000 nM | 1000 to 10000 nM | – | –
19 | O=C(NCc1c(F)cc(F)cc1F)c1cnc2c(c1)N(Cc1c(F)cccc1Cl)C(=O)CS2 [Example 178, 1-(2-chloro-6-fluorobenzyl)-2-oxo-N-(2,4,6-trifluorobenzyl)-2,3-dihydro-1H-pyrido[2,3-b-1,4]thiazine-7-carboxamide] | < 1000 nM | > 10000 nM | > 10000 nM | > 10000 nM | > 10000 nM | – | –

Reference: US20200138827A1, “SMALL MOLECULE MODULATORS OF HUMAN STING” (Curadev Pharma Limited, priority 2017, published 2020)
